pIC50: −log10 of the molar value.
Target: human Nav1.8 (Homo sapiens (Human), UniProt Q9Y5Y9)
Assay: Nav1.8 Qube® Assay (automated 384-well patch-clamp)
Assay type: cell-based
Conditions: human Nav1.8 channels stably expressed in HEK 293 cells
Source text: Qube® Assay Experimental Procedure

Sequence of human Nav1.8 (Q9Y5Y9 whole entry): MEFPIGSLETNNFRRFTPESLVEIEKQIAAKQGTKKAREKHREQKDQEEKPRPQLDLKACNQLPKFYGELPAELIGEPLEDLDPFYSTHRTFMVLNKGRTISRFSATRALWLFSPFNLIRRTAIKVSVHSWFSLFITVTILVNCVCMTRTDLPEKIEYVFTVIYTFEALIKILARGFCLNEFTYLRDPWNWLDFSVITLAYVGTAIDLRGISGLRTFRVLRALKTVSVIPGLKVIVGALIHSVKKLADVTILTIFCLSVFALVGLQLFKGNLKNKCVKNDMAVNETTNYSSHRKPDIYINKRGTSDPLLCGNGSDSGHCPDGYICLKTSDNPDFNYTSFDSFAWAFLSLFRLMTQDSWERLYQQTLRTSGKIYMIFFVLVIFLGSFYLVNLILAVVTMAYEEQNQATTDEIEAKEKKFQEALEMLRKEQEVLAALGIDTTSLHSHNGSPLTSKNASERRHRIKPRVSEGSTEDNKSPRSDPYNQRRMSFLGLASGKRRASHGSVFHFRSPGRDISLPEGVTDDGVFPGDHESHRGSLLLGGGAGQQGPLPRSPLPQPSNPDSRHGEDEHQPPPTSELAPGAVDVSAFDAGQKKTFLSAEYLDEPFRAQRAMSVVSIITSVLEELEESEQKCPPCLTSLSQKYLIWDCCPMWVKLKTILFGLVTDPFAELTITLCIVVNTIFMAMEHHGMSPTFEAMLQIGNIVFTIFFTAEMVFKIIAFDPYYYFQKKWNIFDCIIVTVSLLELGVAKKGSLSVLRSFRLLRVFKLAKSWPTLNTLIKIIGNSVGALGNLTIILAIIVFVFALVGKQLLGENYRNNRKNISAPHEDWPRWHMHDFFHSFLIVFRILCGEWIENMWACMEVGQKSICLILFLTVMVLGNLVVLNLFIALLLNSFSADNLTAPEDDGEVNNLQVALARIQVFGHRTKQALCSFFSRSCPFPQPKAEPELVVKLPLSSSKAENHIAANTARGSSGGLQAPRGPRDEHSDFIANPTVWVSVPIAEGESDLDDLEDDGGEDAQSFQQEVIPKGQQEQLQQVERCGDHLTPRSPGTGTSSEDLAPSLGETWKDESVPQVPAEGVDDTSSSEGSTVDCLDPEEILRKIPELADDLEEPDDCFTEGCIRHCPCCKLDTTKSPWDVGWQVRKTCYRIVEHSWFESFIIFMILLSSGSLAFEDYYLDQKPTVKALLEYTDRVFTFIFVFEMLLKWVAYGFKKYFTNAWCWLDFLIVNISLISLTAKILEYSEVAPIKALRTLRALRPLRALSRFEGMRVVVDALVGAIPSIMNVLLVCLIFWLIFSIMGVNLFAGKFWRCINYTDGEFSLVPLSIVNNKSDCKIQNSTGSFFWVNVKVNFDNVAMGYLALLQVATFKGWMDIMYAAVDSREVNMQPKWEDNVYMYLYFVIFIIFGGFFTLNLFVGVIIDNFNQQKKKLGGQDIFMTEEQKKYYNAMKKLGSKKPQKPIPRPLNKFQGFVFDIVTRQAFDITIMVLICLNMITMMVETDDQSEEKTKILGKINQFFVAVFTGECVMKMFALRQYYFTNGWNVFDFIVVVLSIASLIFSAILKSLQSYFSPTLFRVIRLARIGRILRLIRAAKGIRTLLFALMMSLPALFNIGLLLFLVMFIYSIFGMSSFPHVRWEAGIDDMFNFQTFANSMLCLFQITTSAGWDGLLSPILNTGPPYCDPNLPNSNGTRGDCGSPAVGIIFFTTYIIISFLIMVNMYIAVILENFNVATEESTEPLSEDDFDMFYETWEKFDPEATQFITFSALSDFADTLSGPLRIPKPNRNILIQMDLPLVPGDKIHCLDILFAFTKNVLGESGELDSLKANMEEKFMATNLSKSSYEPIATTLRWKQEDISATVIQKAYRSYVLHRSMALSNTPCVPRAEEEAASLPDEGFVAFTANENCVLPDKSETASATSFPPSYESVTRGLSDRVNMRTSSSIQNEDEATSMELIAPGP

pIC50: 7.24
Structure (SMILES): O=C1NC[C@@H](C(=O)NC(c2ccc(Cl)cc2)c2n[nH]c3ccccc23)O1 (single isomer, unassigned) [Example 15B, (S)-N-((R or S)-(4-chlorophenyl)(1H-indazol-3-yl)methyl)-2-oxooxazolidine-5-carboxamide]

From patent US12516046B2, “2-oxo-oxazolidine-5-carboxamides as NAV1.8 inhibitors” (Merck Sharp & Dohme LLC, priority 2020, dated 2026)
